Assays:
GUMC-403 [1] = test: AC50 for reduction of cell viability; higher = less potent; conditions: 48 h
GUMC-403 [2] = test: viability at highest tested concentration (max response) relative to DMSO (% of DMSO control); higher = less cytotoxic; conditions: library / dose series: MIPE library, 11-point 1:3 dilution, 48 h
How it was run: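 In 1536-well plates, 700 GUMC-403 papilloma cells per well, taken from a patient and grown by conditional reprogramming, were seeded in 5 μL F + Y medium and incubated overnight at 37 °C. Compounds were pinned in at 23 nL in an 11-point 1:3 series, and left for 48 h before CellTiter-Glo luminescence was read on a ViewLux against vehicle (100%) and empty (0%) wells. Reported values are viability at the highest tested concentration relative to vehicle control.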

[3] = library / dose series: MIPE library, 11-point 1:3 dilution
[4] = library / dose series: NPC library, 8-point 1:5 dilution

Compound | AC50 for reduction of cell viability (GUMC-403 [1]; [3]) [µM] | viability (GUMC-403 [2]; top concentration 46.1 µM) | AC50 for reduction of cell viability (GUMC-403 [1]; [4]) [µM] | viability (GUMC-403 [2]; top concentration 92.2 µM)
O=C(Nc1ccc([N+](=O)[O-])cc1Cl)c1cc(Cl)ccc1O | 4.18 | 53.9 | – | –
Cc1c(CN2CCN(C(=O)[C@H](C)O)CC2)sc2c(N3CCOCC3)nc(-c3cnc(N)nc3)nc12 | 0.148 | 54.1 | – | –
CC(C)C[C@H](NC(=O)[C@H](CCc1ccccc1)NC(=O)CN1CCOCC1)C(=O)N[C@@H](Cc1ccccc1)C(=O)N[C@@H](CC(C)C)C(=O)[C@@]1(C)CO1 | 1.05 | 6.18 | – | –
COc1cccc2c1C(=O)c1c(O)c3c(c(O)c1C2=O)C[C@@](O)(C(C)=O)C[C@@H]3O[C@H]1C[C@H](N)[C@H](O)[C@H](C)O1 | 0.372 | 33.5 | – | –
CN(C)c1ccc(C(=O)NCCCCCCC(=O)NO)cc1 | 18.7 | 33.9 | – | –
OCCCNc1cc(-c2ccnc(Nc3cccc(Cl)c3)n2)ccn1 | 0.105 | 63.6 | – | –
COC1=C2C[C@@H](C)C[C@H](OC)[C@H](O)[C@@H](C)/C=C(\C)[C@H](OC(N)=O)[C@@H](OC)/C=C/C=C(\C)C(=O)NC(=CC1=O)C2=O | 4.69 | 23.9 | – | –
CC[C@@H]1C(=O)N(C)c2cnc(Nc3ccc(C(=O)NC4CCC(N5CCN(CC6CC6)CC5)CC4)cc3OC)nc2N1C(C)C (some centres undefined) | 20.9 | 6.26 | – | –
Cl.Cl.Fc1ccc(C(OCCN2CCN(CCCc3ccccc3)CC2)c2ccc(F)cc2)cc1 | – | 67.6 | 11.9 | –
C=CCNC1=C2C[C@@H](C)C[C@H](OC)[C@H](O)[C@@H](C)/C=C(\C)[C@H](OC(N)=O)[C@@H](OC)/C=C\C=C(/C)C(=O)NC(=CC1=O)C2=O | 4.18 | 65.3 | – | –
C1=C/COCc2cc(ccc2OCCN2CCCC2)Nc2nccc(n2)-c2cccc(c2)OCC/1 | 7.43 | 76.3 | – | –
Cc1nc(N)sc1-c1ccnc(Nc2ccc(N3CCOCC3)cc2)n1 | 26.4 | 29.8 | – | –
CO[C@H]1/C=C\C=C(\C)C(=O)NC2=CC(=O)C(NCCN(C)C)=C(C[C@@H](C)C[C@H](OC)[C@H](O)[C@@H](C)/C=C(/C)[C@@H]1OC(N)=O)C2=O | 1.18 | 5.25 | – | –
Nc1nc(N)c2nc(-c3cccc(O)c3)c(-c3cccc(O)c3)nc2n1 | 5.26 | 32.4 | – | –
CN(C)c1ccc2cc(C(=O)N[C@@H](CCCNC(=N)CCl)C(=O)NCc3ccccc3)ccc2c1 | 20.9 | 46.3 | – | –
CC(C)C[C@@H](C=O)NC(=O)[C@H](CC(C)C)NC(=O)[C@H](CC(C)C)NC(=O)OCc1ccccc1 | 10.5 | 9.05 | – | –
CCN(CC)CCNC(=O)c1ccc2nc(-c3ccccc3)c(-c3ccc(CN4CCC(n5c(=O)[nH]c6ccccc65)CC4)cc3)nc2c1 | 10.5 | 3.89 | – | –
CC(=O)SCC(Cc1ccccc1)C(=O)NCC(=O)OCc1ccccc1 (centres undefined) | 1.18 | 42.8 | – | –
C[C@H]([C@H]1C\C(=C(CO)/C(=O)O1)C)[C@H]2CC[C@H]3[C@@H]4C[C@H]5O[C@]56[C@@H](O)\C=C/C(=O)[C@]6(C)[C@H]4CC[C@]23C | 14.8 | 5.02 | – | –
CC1=C(/C=C/C(C)=C/C=C/C(C)=C/C(=O)Nc2ccc(O)cc2)C(C)(C)CCC1 | 48.1 | – | – | 4.3
C/C=C1\NC(=O)[C@H]2CSSCC/C=C\[C@H](CC(=O)N[C@H](C(C)C)C(=O)N2)OC(=O)[C@H](C(C)C)NC1=O | 0.105 | 6.97 | – | –
Cc1c(CN2CCN([S+](C)(=O)[O-])CC2)sc2c(N3CCOCC3)nc(-c3cnc(N)nc3)nc12 | 0.118 | 41.9 | – | –
COC1=CC(c2cc3ccccc3[nH]2)=N/C1=C/c1[nH]c(C)cc1C | 10.5 | 26.6 | – | –
CC(=O)N1CCN(c2ccc(OCc3nn(C)c(C)c3-c3cccc4c(CCCOc5cccc6ccccc56)c(C(=O)O)n(Cc5cccnc5)c34)cc2)CC1 | 7.43 | 3.86 | – | –
COC1=CC(=CC(=C1)C2=CC=C3N=CC\4=C(N(C(=O)\C=C4)C5=CC(=C(C=C5)N6CCNCC6)C(F)(F)F)C3=C2)OC | 16.6 | 28.5 | – | –
COc1ccc(-c2ccc3ncc4c(c3c2)n(-c2ccc(N3CCNCC3)c(C(F)(F)F)c2)c(=O)n4C)cn1 | 8.33 | 3.16 | – | –
CCC[C@H](NC(=O)/C(C#N)=C/c1cccc(Br)n1)c1ccccc1 | 16.6 | 19.1 | – | –

Compound | AC50 for reduction of cell viability (GUMC-403 [1]; [3]) [µM] | viability (GUMC-403 [2]; top concentration 46.1 µM) | AC50 for reduction of cell viability (GUMC-403 [1]; [4]) [µM] | viability (GUMC-403 [2]; top concentration 92.2 µM)
Cc1nc(N)ncc1-c1nc(N2CCOCC2)c2sc(C(C)(C)O)cc2n1 | 0.332 | 45.7 | – | –
CN(C)C1=CC=C(C=C1)C(C2=CC=C(C=C2)N(C)C)=C/3\C=C/C(/C=C3)=[N+](C)C | 14.8 | 4.73 | – | –
Cc1[nH]c2ccccc2c1CCNCc1ccc(/C=C/C(=O)NO)cc1 | 2.64 | 38.2 | – | –
COc1ccc(-c2ccc3c(N4CCOCC4)nc(N4C[C@@H](C)O[C@@H](C)C4)nc3n2)cc1CO | 1.87 | 62.3 | – | –
O=C(/C=C/c1ccc(CN(CCO)CCc2c[nH]c3ccccc23)cc1)NO | 5.9 | 44.9 | – | –
COC1=CC=C2/C3=N/CCN3\C(=N/C2=C1OC)NC(=O)C4=CC=CN=C4 | 5.9 | 64.7 | – | –
CCOc1cc2ncc(C#N)c(Nc3ccc(OCc4ccccn4)c(Cl)c3)c2cc1NC(=O)/C=C/CN(C)C | 0.0743 | 54.2 | – | –
Cc1n[nH]c2ccc(-c3cncc(OC[C@@H](N)Cc4c[nH]c5ccccc45)c3)cc12 | 1.87 | 7.23 | – | –
O=C(NC1CCNCC1)c1n[nH]cc1NC(=O)c1c(Cl)cccc1Cl | 1.05 | 10.5 | – | –
C[C@H]1O[C@H](C[C@H](O)[C@@H]1O)O[C@H]2[C@@H](O)C[C@@H](O[C@@H]2C)O[C@H]3[C@@H](O)C[C@@H](O[C@@H]3C)O[C@H]4CC[C@@]5(C)[C@H](CC[C@@H]6[C@@H]5C[C@@H](O)[C@]7(C)[C@H](CC[C@]67O)C/8=C/C(=O)OC8)C4 | 0.191 | – | – | 48.5
CC/C(=C(/c1ccc(O)cc1)c1ccc(OCCNC)cc1)c1ccccc1 | 23.5 | 23.9 | – | –
O=C(NOCC1CC1)c1ccc(F)c(F)c1Nc1ccc(I)cc1Cl | 23.5 | 20.7 | 13.3 | –
CC1=C2N=C([NH]C2=CC(=C1)N3CCOCC3)\C4=C(NC[C@@H](O)C5=CC=CC(=C5)Cl)\C=C/NC4=O | 0.235 | 13.8 | – | –
COc1cc(Nc2ncc(F)c(Nc3ccc4c(n3)N(COP(=O)(O)O)C(=O)C(C)(C)O4)n2)cc(OC)c1OC | 0.935 | 34.2 | – | –
O=C(OC)[C@]12CC[C@@]3(C)[C@]4(C)CC[C@H]5[C@@](C)(C)C(=O)C(=C[C@]5(C)C4=CC(=O)[C@@H]3[C@@H]2C[C@](C)(C)CC1)C#N | 2.96 | 4.67 | – | –
COCCn1c2c([n+](Cc3cnccn3)c1C)C(=O)c1ccccc1C2=O | 0.187 | 5.13 | – | –
Oc1cccc(-c2nc(N3CCOCC3)c3oc4ncccc4c3n2)c1 | 0.762 | – | – | 28.3
CNC(=O)c1cccc(-c2ccc3c(N4CCOC[C@@H]4C)nc(N4CCOC[C@@H]4C)nc3n2)c1 | 0.0235 | 59 | – | –
CC[C@H](NC1=C2N=C[NH]C2=NC=N1)C/3=N/C4=C(C(=CC=C4)F)C(=O)N3C5=CC=CC=C5 | 3.72 | 75.5 | – | –
Cc1ccc(NC(=O)C2(c3ccc4c(c3)OC(F)(F)O4)CC2)nc1-c1cccc(C(=O)O)c1 | 1.66 | 6.42 | – | –
CCN1CCN(Cc2ccc(-c3cc4c(N[C@H](C)c5ccccc5)ncnc4[nH]3)cc2)CC1 | 0.372 | 69 | – | –
C[C@@H]1O[C@@H](O[C@H]2C[C@@H](O)[C@]3(CO)[C@H]4[C@H](O)C[C@]5(C)[C@@H](C6=CC(=O)OC6)CC[C@]5(O)[C@@H]4CC[C@]3(O)C2)[C@H](O)[C@H](O)[C@H]1O | 0.0296 | 75.4 | – | –
CCOC(=O)[C@H](CCc1ccccc1)N[C@@H](C)C(=O)N1[C@H](C(=O)O)C[C@@H]2CCC[C@@H]21 | 26.4 | 4.65 | – | –
C[S+](=O)([O-])CCNCc1ccc(-c2ccc3ncnc(Nc4ccc(OCc5cccc(F)c5)c(Cl)c4)c3c2)o1 | 10.5 | 8.12 | – | –
O=C1\C=C(/OC2=C1C=CC=C2C3=CC=CC=C3)N4CCOCC4 | 5.9 | 61.6 | – | –
CCc1cnn2c(NCc3ccc[n+]([O-])c3)cc(N3CCCC[C@H]3CCO)nc12 | 0.0469 | 62.2 | – | –
CC(C)C[C@H](NC(=O)CNC(=O)c1cc(Cl)ccc1Cl)B1OC(=O)CC(CC(=O)O)(C(=O)O)O1 (some centres undefined) | 2.35 | 38.8 | – | –
